Marks after values point to notes of the source that are not given here.

Results on 23 compounds are retold here after article PMC6204753, “Non-native autoinducer analogs capable of modulating the SdiA quorum sensing receptor in Salmonella enterica serovar Typhimurium” (Beilstein Journal of Organic Chemistry, 2018).

For assay [1], the target named is T1, SdiA (Salmonella enterica subsp. enterica serovar Typhimurium, UniProt O66040). Description: S. Typhimurium-pJNS25 SdiA reporter, agonism (luminescence). Format: cell-based. The note with it: for EC50: agonism dose–response, read-out: EC50; for Emax: read-out: activation (%); for fold increase: potency of thiolactone over corresponding lactone (EC50 ratio). The text has this:
Biological assays for SdiA activity. Cell-based reporter strains that rely on detecting the transcriptional activity of LuxR-type receptors are commonly used to assess the activity of exogenous ligands. We used the S. Typhimurium-pJNS25 reporter strain constructed by Smith and Ahmer and also used by Janssens et al. to examine SdiA activity. This strain naturally produces SdiA and contains a reporter plasmid with the promoter region for srgE fused to the luxABCDE operon of V. fischeri (see Experimental section for details of all strains and plasmids). SdiA activity is thus reported by the production of luciferase and resulting bioluminescence. We also prepared an SdiA reporter in E. coli (JLD271-pJN105SE-pSC11SE) to examine S. Typhimurium SdiA activity in an alternate background and with a different reporter gene output. […] This reporter construct uses an arabinose inducible promoter to produce S. Typhimurium SdiA and the promoter region for srgE fused to lacZ to report SdiA activity. SdiA activity is then measured using standard β-galactosidase assays. In both reporter strains, signal was normalized to the difference between the positive control (10 μM OOHL) and the negative control (1% DMSO; no compound).
Salmonella SdiA reporter assay. S. Typhimurium-pJNS25 was grown 16–18 h overnight in LB, diluted 1:100 in fresh LB medium, and then incubated for 6 h at 37 °C with shaking at 200 rpm in the presence of compounds (1% DMSO). […] All compounds were screened at 100 μM and 1 μM in triplicate in agonism and antagonism assays. […] Dose–response analyses were performed by preparing dilutions of compounds in DMSO and testing each concentration in the agonism or antagonism assays. Competition dose–response assays (data in Figure 5) were performed in the same manner as the antagonism assays, except instead of OOHL being added to the subculture, the antagonist being tested was added. Non-linear regression curve fits were generated using GraphPad Prism software (version 6) using variable slope (four parameter) dose–response analysis.

Assay [2] addresses T1, SdiA. Briefly: S. Typhimurium-pJNS25 SdiA reporter, competitive antagonism against 10 nM L-OOHL. Format: cell-based. The note with it: for inhibition at 1 µM: 1 μM compound, read-out: Antagonism 1 μM Inhibition (%); for inhibition at 1 µM / inhibition at 100 µM: average ± STD, change in activity from 10 nM 2 (OOHL); for inhibition at 100 µM: 100 μM compound, read-out: Antagonism 100 μM Inhibition (%); for Emax: maximal inhibition, 100% minus lowest % activity in presence of 10 nM L-OOHL (2), read-out: inhibition (%); for IC50: against 10 nM L-OOHL (EC90). A digest of the protocol: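 S. Typhimurium-pJNS25 (native SdiA, srgE promoter–luxCDABE) subcultured 1:100 in LB and incubated 6 h at 37 °C, 200 rpm, with compound (1% DMSO); antagonism run against 10 nM L-OOHL. Luminescence normalised between 10 μM OOHL and 1% DMSO controls; triplicates; four-parameter dose–response fits.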

[3] abbreviates: maximal activity (efficacy) from agonism dose–response, 10 μM OOHL = 100%, DMSO = 0%.
Where [4] appears, read: maximal activation of the antagonists (partial agonism), Table 3.

T1 sequence (O66040 entry or part of it): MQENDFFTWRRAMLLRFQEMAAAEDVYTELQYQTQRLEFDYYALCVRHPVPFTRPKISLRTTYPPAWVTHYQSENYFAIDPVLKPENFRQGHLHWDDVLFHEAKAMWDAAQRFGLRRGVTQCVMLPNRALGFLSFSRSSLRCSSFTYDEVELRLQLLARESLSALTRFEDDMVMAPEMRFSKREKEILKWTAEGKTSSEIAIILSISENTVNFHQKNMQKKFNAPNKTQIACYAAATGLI

As for `N#Cc1cccc(CC(=O)N[C@H]2CCOC2=O)c1` [E5], the EC50 at SdiA [1] is 62.2 nM. In addition, the Emax at SdiA [1] (setting [3]) worked out at 73%. Besides, at SdiA [2], the inhibition at 1 µM amounted to 18 ± 8% and the inhibition at 100 µM is -8 ± 4%.

As for `CSc1ccc(CC(=O)N[C@H]2CCOC2=O)cc1` [E6], at SdiA [1] (setting [4]), the Emax was 74%. In addition, at SdiA [2], the inhibition at 1 µM was determined as 25 ± 16%, the inhibition at 100 µM was 44 ± 13% and the Emax was determined as 49%.

Take `CSc1cccc(CC(=O)N[C@H]2CCOC2=O)c1` [E7]: the EC50 on SdiA [1] came to 26 nM. For the same compound, the Emax at SdiA [1] (setting [3]) turned out to be 91%. On SdiA [2], the inhibition at 1 µM stood at 20 ± 14% and the inhibition at 100 µM was 12 ± 13%.

For `Cc1ccc(OCC(=O)N[C@H]2CCOC2=O)cc1` [E15], at SdiA [1], the EC50 is 33 nM. Moreover, the Emax on SdiA [1] (setting [3]) is 98%. At SdiA [2], the inhibition at 1 µM is -3 ± 5% and the inhibition at 100 µM is -17 ± 7%.

Take `Cc1cccc(OCC(=O)N[C@H]2CCOC2=O)c1` [E16]: the EC50 at SdiA [1] was 43.3 nM. The Emax at SdiA [1] (setting [3]) came to 100%. For the same compound, at SdiA [2], the inhibition at 1 µM is -2 ± 8% and the inhibition at 100 µM is -4 ± 5%.

In the case of `O=C(COc1ccc(I)cc1)N[C@H]1CCOC1=O` [E22], the EC50 at SdiA [1] is 10.4 nM. Further, the Emax on SdiA [1] (setting [3]) worked out at 108%. Besides, at SdiA [2], the inhibition at 1 µM was -5 ± 11% and the inhibition at 100 µM was -15 ± 8%.

`O=C(CCc1cccc(I)c1)N[C@H]1CCOC1=O` [E33]: the Emax on SdiA [1] (setting [4]) amounted to 67%. Also, on SdiA [2], the inhibition at 1 µM came out at 20 ± 6%, the inhibition at 100 µM stood at 38 ± 10%, the IC50 was 9640 nM and the Emax was 19%.

Turning to `CSc1ccc(CCC(=O)N[C@H]2CCOC2=O)cc1` [E34], the Emax at SdiA [1] (setting [4]) was found to be 66%. On SdiA [2], the inhibition at 1 µM was determined as 21 ± 15%, the inhibition at 100 µM stood at 39 ± 8% and the Emax stood at 30%.

With `CCCCCC(=O)CC(=O)N[C@H]1CCSC1=O` [F2], on SdiA [1], the EC50 was 0.7 nM and the fold increase was 1.47^c. The Emax on SdiA [1] (setting [3]) is 119%. Also, at SdiA [2], the inhibition at 1 µM is -19 ± 12% and the inhibition at 100 µM is -19 ± 15%.

As for `CCCCCCCC(=O)N[C@H]1CCSC1=O` [F5], on SdiA [1], the EC50 was found to be 2.28 nM and the fold increase is 8.12. The Emax on SdiA [1] (setting [3]) was determined as 79%. Also, at SdiA [2], the inhibition at 1 µM was 3 ± 6% and the inhibition at 100 µM came out at 0%.

In the case of `CCCC(=O)N[C@H]1CCSC1=O` [F8], at SdiA [1], the EC50 amounted to 62.8 nM and the fold increase was 9.20. Moreover, the Emax on SdiA [1] (setting [3]) came out at 91%. In addition, on SdiA [2], the inhibition at 1 µM is -5 ± 10% and the inhibition at 100 µM was -23 ± 11%.

As to `O=C(Cc1cccc([N+](=O)[O-])c1)N[C@H]1CCSC1=O` [F11], at SdiA [1], the EC50 is 2.47 nM and the fold increase is recorded as 11.5. For the same compound, the Emax on SdiA [1] (setting [3]) amounted to 97%. Besides, at SdiA [2], the inhibition at 1 µM is -11 ± 7% and the inhibition at 100 µM is -16 ± 13%.

Take `COc1ccc(CC(=O)N[C@H]2CCSC2=O)cc1` [F12]: on SdiA [1], the EC50 was determined as 38.8 nM and the fold increase was found to be 6.49. Also, the Emax on SdiA [1] (setting [3]) was 84%. Also, at SdiA [2], the inhibition at 1 µM is -13 ± 10% and the inhibition at 100 µM was -21 ± 8%.

On to `O=C(Cc1ccc(-c2ccccc2)cc1)N[C@H]1CCSC1=O` [F13], for which the Emax at SdiA [1] (setting [4]) was found to be 59%. For the same compound, on SdiA [2], the inhibition at 1 µM was determined as 23 ± 4%, the inhibition at 100 µM was 46 ± 15%, the IC50 is 2350 nM and the Emax stood at 51%.

In the case of `CCOC(=O)CNC(=O)Cc1ccc(Br)cc1` [F39], the Emax at SdiA [1] (setting [4]) turned out to be 50%. On SdiA [2], the inhibition at 1 µM is 27 ± 9%, the inhibition at 100 µM was determined as 53 ± 11% and the Emax was 55%.

With `CCOC(=O)CNC(=O)Cc1cccc([N+](=O)[O-])c1` [F40], on SdiA [1] (setting [4]), the Emax is 56%. On SdiA [2], the inhibition at 1 µM turned out to be 21 ± 8%, the inhibition at 100 µM was found to be 43 ± 4%, the IC50 was 27800 nM and the Emax worked out at 33%.

Consider `CCOC(=O)CNC(=O)Cc1ccc(OC)cc1` [F47], for which the Emax on SdiA [1] (setting [4]) worked out at 61%. For the same compound, on SdiA [2], the inhibition at 1 µM worked out at 3 ± 14%, the inhibition at 100 µM worked out at 36 ± 10% and the Emax worked out at 42%.

Turning to `CCCCCCCCCCOc1ccc(C(=O)N[C@H]2CCOC2=O)cc1` [R7], the Emax at SdiA [1] (setting [4]) was determined as 6%. Besides, at SdiA [2], the inhibition at 1 µM is 8 ± 6%, the inhibition at 100 µM was 43 ± 15%, the IC50 was determined as 3100 nM and the Emax amounted to 51%.

On to `CCCCCCCCCCCCOc1ccc(C(=O)N[C@H]2CCOC2=O)cc1` [R9], for which the Emax at SdiA [1] (setting [4]) is 6%. Also, at SdiA [2], the inhibition at 1 µM amounted to 22 ± 10%, the inhibition at 100 µM amounted to 42 ± 13% and the Emax is 63%.

Consider `O=C(COc1ccc(I)cc1)N[C@H]1CCSC1=O` [RN22], for which, on SdiA [1], the EC50 is 6.08 nM and the fold increase is 1.71^c. The Emax at SdiA [1] (setting [3]) was determined as 93%. On SdiA [2], the inhibition at 1 µM was -4 ± 9% and the inhibition at 100 µM was 3 ± 9%.

As to `CCCCCCC(CCCC)C(=O)N[C@H]1CCOC1=O` (stereo partly drawn) [S2], on SdiA [1] (setting [4]), the Emax was found to be 63%. On SdiA [2], the inhibition at 1 µM amounted to 48 ± 3%, the inhibition at 100 µM stood at 2 ± 11% and the Emax was 32%.

In the case of `O=C(CC1CCCCC1)N[C@H]1CCOC1=O` [S7], the EC50 at SdiA [1] amounted to 106 nM. Further, the Emax at SdiA [1] (setting [3]) turned out to be 89%. Besides, at SdiA [2], the inhibition at 1 µM stood at 7 ± 14% and the inhibition at 100 µM was found to be 1 ± 7%.

`O=C(Nc1ccccc1NC(=O)c1cccc(Cl)c1)c1cccc(Cl)c1` [compound 20, reference compound]: the Emax at SdiA [1] (setting [4]) turned out to be 47%. On SdiA [2], the inhibition at 1 µM is 35 ± 18%, the inhibition at 100 µM turned out to be 39 ± 17% and the Emax amounted to 53%.

In general, EC50 refers to the concentration at which the effect is half-maximal. A word on the inhibition: it is the drop in the measured response relative to a control, in per cent. Broadly, the IC50 is the midpoint of a concentration-inhibition curve. Higher therefore signals lower potency.
